Measured values reported in PubChem BioAssay AID1900 (Broad Institute, 2009).
Several values for one entry are separate records, joined by “and”; a condition that tells them apart may be missing. Equal entries are not always repeated.

Test system: SK(-)GAS Streptococcus pyogenes + kanamycin, BacTiterGlo viability, 6 h
Assay: Streptococcus pyogenes SK(-)GAS viability under kanamycin – luminescence, BacTiterGlo, confirmation, counter-screen for streptokinase expression inhibitor project, dose response (AID 1900)

Row | Compound | EC50
1 | CNC(CC(C)C)C(=O)NC1C(=O)NC(CC(N)=O)C(=O)NC2C(=O)NC3C(=O)NC(C(=O)NC(C(=O)O)c4cc(O)cc(O)c4-c4cc3ccc4O)C(O)c3ccc(c(Cl)c3)Oc3cc2cc(c3OC2OC(CO)C(O)C(O)C2OC2CC(C)(N)C(O)C(C)O2)Oc2ccc(cc2Cl)C1O (configuration not stated) | 211 nM
2 | CN(C)c1ccnc2c[cH-]cc12.[Fe].c1ccc(-[c-]2[c-](-c3ccccc3)[c-](-c3ccccc3)[c-](-c3ccccc3)[c-]2-c2ccccc2)cc1 (configuration not stated) | 989 nM and 334 nM
